Laboratory results reported in ChEMBL document CHEMBL1150311, “4-Methyl-5-phenyl triazoles as selective inhibitors of 11beta-hydroxysteroid dehydrogenase type I” (Bioorg Med Chem Lett, 2008).
Values belong to the molecule of their own block, whether it stands above or below them.

How the values were obtained:
[1] = molecular target: T1, Nuclear receptor subfamily 1 group I member 2 (Homo sapiens, UniProt O75469); test: Agonist activity at human PXR at 10 uM; type: functional
T1 sequence (O75469 whole entry): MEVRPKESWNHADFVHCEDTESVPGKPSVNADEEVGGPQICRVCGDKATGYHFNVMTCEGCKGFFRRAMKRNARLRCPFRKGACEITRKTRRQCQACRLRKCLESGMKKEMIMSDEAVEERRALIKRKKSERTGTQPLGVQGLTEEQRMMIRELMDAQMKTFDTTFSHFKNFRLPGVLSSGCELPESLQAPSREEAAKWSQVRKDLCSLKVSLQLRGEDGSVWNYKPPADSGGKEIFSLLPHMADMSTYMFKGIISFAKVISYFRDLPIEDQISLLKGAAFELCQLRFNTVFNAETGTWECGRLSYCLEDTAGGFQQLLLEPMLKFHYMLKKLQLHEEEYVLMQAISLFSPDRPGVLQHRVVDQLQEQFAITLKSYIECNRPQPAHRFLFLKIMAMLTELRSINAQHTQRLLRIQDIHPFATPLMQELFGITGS

[2] = molecular target: T2, 11-beta-hydroxysteroid dehydrogenase type 2 (Mus musculus, UniProt P51661); test: Inhibition of mouse 11beta HSD2
T2 sequence (P51661 whole entry): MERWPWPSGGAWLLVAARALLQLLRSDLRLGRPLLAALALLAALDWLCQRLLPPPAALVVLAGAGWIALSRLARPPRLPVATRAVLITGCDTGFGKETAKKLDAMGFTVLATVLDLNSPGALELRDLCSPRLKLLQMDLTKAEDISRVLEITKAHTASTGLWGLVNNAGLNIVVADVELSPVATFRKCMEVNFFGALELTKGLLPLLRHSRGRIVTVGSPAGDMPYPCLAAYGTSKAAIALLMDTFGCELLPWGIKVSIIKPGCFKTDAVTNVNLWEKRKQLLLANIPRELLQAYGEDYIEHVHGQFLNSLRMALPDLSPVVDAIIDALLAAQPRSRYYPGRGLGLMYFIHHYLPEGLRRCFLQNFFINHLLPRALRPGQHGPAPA

[3] = molecular target: 11-beta-hydroxysteroid dehydrogenase 1 (Mus musculus, UniProt P50172); test: Inhibition of mouse 11beta HSD1 by SPA assay
11-beta-hydroxysteroid dehydrogenase 1 (Mus musculus, UniProt P50172), sequence (P50172 whole entry): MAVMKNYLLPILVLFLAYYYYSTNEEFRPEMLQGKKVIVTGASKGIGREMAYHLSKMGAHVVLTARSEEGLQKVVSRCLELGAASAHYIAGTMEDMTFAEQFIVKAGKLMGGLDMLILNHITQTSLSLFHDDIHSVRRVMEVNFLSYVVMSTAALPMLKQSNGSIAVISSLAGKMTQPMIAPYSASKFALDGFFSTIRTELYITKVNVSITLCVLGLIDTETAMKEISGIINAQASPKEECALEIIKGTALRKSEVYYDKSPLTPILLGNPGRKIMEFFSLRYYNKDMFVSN

[4] = molecular target: 11-beta-hydroxysteroid dehydrogenase 1 (Homo sapiens, UniProt P28845); test: Inhibition of human 11beta HSD1 by SPA assay
11-beta-hydroxysteroid dehydrogenase 1 (Homo sapiens, UniProt P28845), sequence (P28845 whole entry): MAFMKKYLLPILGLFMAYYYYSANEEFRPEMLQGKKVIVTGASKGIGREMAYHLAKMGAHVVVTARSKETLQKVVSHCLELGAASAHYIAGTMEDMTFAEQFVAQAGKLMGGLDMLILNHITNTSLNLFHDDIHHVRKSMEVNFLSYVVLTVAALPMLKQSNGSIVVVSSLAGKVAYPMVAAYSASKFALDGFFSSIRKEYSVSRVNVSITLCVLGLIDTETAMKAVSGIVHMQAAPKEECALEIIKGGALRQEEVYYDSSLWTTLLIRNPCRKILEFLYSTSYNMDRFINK

[5] = molecular target: T1, Nuclear receptor subfamily 1 group I member 2; test: Agonist activity at human PXR; type: functional
Mus musculus [6] = test: Inhibition of [3H]cortisone to [3H]cortisol conversion in mouse at 10 mg/kg, po administered as single dose after 16 hrs; type: functional
Mus musculus [7] = test: Inhibition of [3H]cortisone to [3H]cortisol conversion in mouse at 10 mg/kg, po administered as single dose after 4 hrs; type: functional
[8] = molecular target: T3, 11-beta-hydroxysteroid dehydrogenase type 2 (Homo sapiens, UniProt P80365); test: Inhibition of human 11beta HSD2
T3 sequence (P80365 whole entry): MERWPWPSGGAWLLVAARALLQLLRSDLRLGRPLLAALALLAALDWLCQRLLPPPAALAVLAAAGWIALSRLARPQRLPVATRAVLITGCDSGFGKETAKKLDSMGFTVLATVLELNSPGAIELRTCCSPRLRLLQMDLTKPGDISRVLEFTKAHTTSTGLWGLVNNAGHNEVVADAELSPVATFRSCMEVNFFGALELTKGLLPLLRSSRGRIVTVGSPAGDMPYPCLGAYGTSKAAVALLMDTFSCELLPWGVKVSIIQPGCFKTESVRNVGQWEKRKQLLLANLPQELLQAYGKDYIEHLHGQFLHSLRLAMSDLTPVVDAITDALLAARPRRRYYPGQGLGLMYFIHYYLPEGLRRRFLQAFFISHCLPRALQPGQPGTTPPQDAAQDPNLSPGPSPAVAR

[9] = molecular target: T4, 11-beta-hydroxysteroid dehydrogenase type 2 (Homo sapiens) (UniProt P80365); details: at 4 µM
T4 sequence (whole entry): T3 sequence (P80365 whole entry)
Description: Inhibition of human 11beta HSD2 at 4 uM

SMILES: Cn1c(-c2ccc(-n3ccnc3)cc2Cl)nnc1C1(c2ccc(Cl)cc2)CCC1
Activity [1]: 21% | IC50 [2]: > 4000 nM | IC50 [3]: 2.8 nM | IC50 [4]: 1 nM | EC50 [5]: 12000 nM | inhibition in vivo at 10 mg/kg (Mus musculus [6]): 10% | inhibition in vivo at 10 mg/kg (Mus musculus [7]): 78%

SMILES: Cn1c(-c2ccc(-c3ccccn3)cc2Cl)nnc1C1(c2ccc(Cl)cc2)CCC1
Activity [1]: 98% | IC50 [2]: > 4000 nM | IC50 [3]: 1.4 nM | IC50 [4]: 1 nM | EC50 [5]: 2400 nM | inhibition in vivo at 10 mg/kg (Mus musculus [6]): -5% | inhibition in vivo at 10 mg/kg (Mus musculus [7]): 41%

SMILES: Cn1c(-c2ccc(-c3ccncc3)cc2Cl)nnc1C1(c2ccc(Cl)cc2)CCC1
Activity [1]: 42% | IC50 [2]: > 4000 nM | IC50 [3]: 2 nM | IC50 [4]: 1 nM | EC50 [5]: 7700 nM | inhibition in vivo at 10 mg/kg (Mus musculus [6]): 8% | inhibition in vivo at 10 mg/kg (Mus musculus [7]): 39%

SMILES: CCS(=O)(=O)c1ccccc1-c1ccc(-c2nnc(C3(c4ccc(Cl)cc4)CCC3)n2C)c(Cl)c1
Activity [1]: 74% | IC50 [8]: > 4000 nM | IC50 [2]: > 4000 nM | IC50 [3]: 1.2 nM | IC50 [4]: 0.98 nM | EC50 [5]: 700 nM | inhibition in vivo at 10 mg/kg (Mus musculus [6]): 6% | inhibition in vivo at 10 mg/kg (Mus musculus [7]): 56%

SMILES: Cn1c(-c2ccc(-c3ccccc3)cc2Cl)nnc1C1(c2ccc(Cl)cc2)CCC1
IC50 [3]: 1.4 nM | IC50 [4]: 1 nM | EC50 [5]: 1700 nM | inhibition in vivo at 10 mg/kg (Mus musculus [6]): 85% | inhibition in vivo at 10 mg/kg (Mus musculus [7]): 99%

SMILES: Cn1c(-c2ccc(-n3ccnc3C(F)(F)F)cc2Cl)nnc1C1(c2ccc(Cl)cc2)CCC1
Activity [1]: 24% | IC50 [2]: > 4000 nM | IC50 [3]: 0.96 nM | IC50 [4]: 0.98 nM | EC50 [5]: 3200 nM | inhibition in vivo at 10 mg/kg (Mus musculus [6]): 20% | inhibition in vivo at 10 mg/kg (Mus musculus [7]): 58%

The remaining molecules from weak to strong by IC50 [3], led by results:

Activity [1]: 22% | IC50 [2]: > 4000 nM | IC50 [3]: 9.6 nM | IC50 [4]: 2.6 nM | EC50 [5]: > 25000 nM
SMILES: Cc1nccn1-c1ccc(-c2nnc(C3(c4ccc(Cl)cc4)CCC3)n2C)c(Cl)c1

Activity [1]: 13% | IC50 [2]: > 4000 nM | IC50 [3]: 6 nM | IC50 [4]: 9.8 nM | EC50 [5]: 1300 nM
SMILES: Cc1cn(-c2ccc(-c3nnc(C4(c5ccc(Cl)cc5)CCC4)n3C)c(Cl)c2)c(C2CC2)n1
inhibition in vivo at 10 mg/kg (Mus musculus [6]): 7% | inhibition in vivo at 10 mg/kg (Mus musculus [7]): 60%

inhibition [9]: 54% | Activity [1]: 48% | IC50 [2]: > 4000 nM | IC50 [3]: 4.7 nM | IC50 [4]: 11 nM | EC50 [5]: 1700 nM
SMILES: CCSc1ccccc1-c1ccc(-c2nnc(C3(c4ccc(Cl)cc4)CCC3)n2C)c(Cl)c1
inhibition in vivo at 10 mg/kg (Mus musculus [6]): 1% | inhibition in vivo at 10 mg/kg (Mus musculus [7]): 51%

Activity [1]: 35% | IC50 [2]: > 4000 nM | IC50 [3]: 1.3 nM | IC50 [4]: 1 nM | EC50 [5]: 3600 nM
SMILES: Cn1c(-c2ccc(-c3cccnc3)cc2Cl)nnc1C1(c2ccc(Cl)cc2)CCC1
inhibition in vivo at 10 mg/kg (Mus musculus [6]): 26% | inhibition in vivo at 10 mg/kg (Mus musculus [7]): 100%

Activity [1]: 2% | IC50 [8]: > 4000 nM | IC50 [2]: > 4000 nM | IC50 [3]: 1.2 nM | IC50 [4]: 1.7 nM | EC50 [5]: > 25000 nM
SMILES: Cn1c(-c2ccc(-c3ccc(S(C)(=O)=O)cc3)cc2Cl)nnc1C1(c2ccc(Cl)cc2)CCC1
inhibition in vivo at 10 mg/kg (Mus musculus [6]): -5% | inhibition in vivo at 10 mg/kg (Mus musculus [7]): 20%

inhibition [9]: 59% | Activity [1]: -31% | IC50 [2]: > 4000 nM | IC50 [3]: 0.98 nM | IC50 [4]: 0.98 nM | EC50 [5]: 25000 nM
SMILES: CCS(=O)(=O)c1cccc(-c2ccc(-c3nnc(C4(c5ccc(Cl)cc5)CCC4)n3C)c(Cl)c2)c1
inhibition in vivo at 10 mg/kg (Mus musculus [6]): 29% | inhibition in vivo at 10 mg/kg (Mus musculus [7]): 93%

Activity [1]: -5% | IC50 [8]: > 4000 nM | IC50 [2]: > 4000 nM | IC50 [3]: 0.98 nM | IC50 [4]: 0.98 nM | EC50 [5]: > 25000 nM
SMILES: Cn1c(-c2ccc(-c3cccc(S(C)(=O)=O)c3)cc2Cl)nnc1C1(c2ccc(Cl)cc2)CCC1
inhibition in vivo at 10 mg/kg (Mus musculus [6]): 36% | inhibition in vivo at 10 mg/kg (Mus musculus [7]): 96%

inhibition [9]: 75% | Activity [1]: -8% | IC50 [2]: > 4000 nM | IC50 [3]: 0.98 nM | IC50 [4]: 2.1 nM | EC50 [5]: > 25000 nM
SMILES: CCS(=O)(=O)c1ccc(-c2ccc(-c3nnc(C4(c5ccc(Cl)cc5)CCC4)n3C)c(Cl)c2)cc1
inhibition in vivo at 10 mg/kg (Mus musculus [6]): 16% | inhibition in vivo at 10 mg/kg (Mus musculus [7]): 71%
